From patent US10072014B2 (Janssen Pharmaceutica NV, priority 2014, dated 2018) come the findings set out here.

Usually ED50 stands for the dose at which the effect has come halfway, by size or by number of responders. As a reminder, the melting point is the temperature of the solid-liquid transition.

Data set [1] is described as follows: Induction of mydriasis. Particulars: Wiga, rat, in vivo, PO, rats. Here is the method:
3) Induction of Mydriasis
The pupil diameter of Wiga rats was measured with a microscopic micrometer (1 unit= 1/24 mm). Criteria for drug-induced effects: pupil diameter>25 units for mydriasis (in controls: 1.9%) 1 h post-administration of the test compound (test 1) or 1, 2 or 3 h post-administration of the test compound (test 2, wherein the maximum pupil diameter over the full 3 h period is reported).

Data set [2] deals with Wiga Wistar rats. The experiment in a line: Reversal of LY-404039-induced decrease of palpebral opening in apomorphine-challenged rats. Particulars: Rattus norvegicus, PO, criterion: cumulative palpebral opening score >26, read-out: ED50 APO LY-404039. The format is in vivo. Here is the method:
B) In Vivo Pharmacology 1) Reversal of LY-404039-induced Decrease of Palpebral Opening in Apomorphine-challenged Rats.
Male Wiga Wistar rats (Crl:WI; Charles River Germany; 220±40 g) were housed under standard laboratory conditions (21±2° C.; 50-65% relative humidity; light-dark cycle set at 12 h; lights on at 6.00 h) and fasted overnight prior to the start of the experiments (tap water remained available ad libitum). During the test period, they were housed in individual cages. Palpebral opening was scored every 5 min over the first hour after injection of apomorphine (1.0 mg/kg, i.v.) in animals either pretreated or not pretreated with LY-404039 (2.5 mg/kg, s.c.) at 1 h prior to the apomorphine injection. The animals were also pretreated with test compound or solvent at a predefined interval before apomorphine challenge. The score system was: (5) exophthalmos, (4) wide open, (3) open for three-quarters, (2) half open, (1) open for one-quarter, (0) closed. The scores for palpebral opening were cumulated over the 60-min observation period. A cumulative palpebral opening score>26 was selected for drug-induced reversal of the LY-404039-induced decrease of palpebral opening (occurrence in 3.2% of control animals pretreated with LY-404039 (n=154) versus in 99.5% of control rats not pretreated with LY-404039 (n=6335)). […]

Consider `Cc1ncc(-c2cnn3c2C(=O)N(c2ccc(C(F)(F)F)c(Cl)c2)C[C@@H]3C)[nH]1` [Compound 27], for which the melting point amounted to 188.27 °C. In data set [1] (maximum pupil diameter >25 units over 1, 2 or 3 h post-administration, read-out: ED50 MYD Test 2), the 50% effective dose (ED50) is above 40 mg/kg. Further, the ED50 at 1 h in data set [1] (pupil diameter >25 units 1 h post-administration, read-out: ED50 MYD Test 1) is above 10 mg/kg. In addition, the ED50 in data set [2] amounted to 0.2 mg/kg.
